One data set concerns the target T1, Chk2 (Homo sapiens, UniProt O96017).
T1 construct: purchased Upstate Biotechnology, Inc
The data set can be described thus: Kinase activity measurement (K-LISA), Chk2. The data set is classed as biochemical. The protocol:
(§1) The K-LISA™ Chk-1/Chk2 Activity Kit was supplied by Calibiochem (Cat. No. CBA020). Chk1 and Chk2 are from Upstate Biotechnology, Inc., and C-Met, HER2, EGFR are from Sigma. The Chk Peptide ([…]) (SEQ ID NO: 1) is from Cell Signaling, Inc., (Beverly, Mass., USA), and is stored at −70° C.
(§2) Kinase activity measurements: Enzyme, sample, Chk peptide, 5 μm ATP, and reaction buffer are added to the holes of biotinylated reaction plates. After the reaction is terminated with a stop buffer, the contents are discarded, replaced with 100 μl/hole of serine kinase antibody, to detect phosphorylation, and HRP-labeled goat-anti-rabbit IgG is added and incubated at room temperature for 1 hour. TMB reaction is conducted to determine substrate phosphorylation, with proper controls. OD450 is measured using VERSAmax (Sunnyvale, Calif., USA). The rate of inhibition is calculated as the follows: Rate of Inhibition (I)=(reaction hole OD Value−OD value of Enzyme-free control)/(OD value of negative control−OD value of enzyme-free control)×100%.

Another data set deals with Mouse Lung Cancer (3LL). The data set can be described thus: In vitro anti-cancer cell activity, 3LL. The format is cell-based. The conditions noted are these: read-out: In vitro anti-cancer cell activities IC50, Mouse Lung Cancer (3LL). The protocol: (§3) Some of the above compounds are tested in vitro or in vivo for their anti-cancer or anti-tumor activities, as well as cellular toxicity tests using SRB and MTT methods. The in vitro anti-cancer effects on human cancer HT-29 and mouse lung cancer cell 3LL are summarized in Table 1, and the effects on treating transplanted human colon cancer […] on nude mice are summarized in Table 2.

The test system of data set [1] is Human colon cancer HT-29. The experiment in a line: In vitro anti-cancer cell activity, HT-29. The data set is classed as cell-based. The conditions noted are these: read-out: In vitro anti-cancer cell activities IC50, Human colon cancer HT-29. The procedure: as §3
The test system of a further data set is HT-29 Cell line. The experiment in a line: SRB cell multiplication test, sensitizing to cytotoxic antitumor drugs. The conditions noted are these: for sensitizing effects on cytotoxic antitumor drugs at the cellular level (in words): DDP, 5-fu, pemetrexed, oxaliplatin as named in the sentence.
For another data set, the system named is mouse lung cancer 3LL. The experiment in a line: MTT cytotoxicity, 3LL. The format is cell-based. The conditions noted are these: 48 hours. The protocol:
(§4) Cell lines: human low differentiation stomach cancer BGC-823, human liver cancer QGY-7701, mouse lung cancer 3LL.
(§5) Experimental Details: The cyto-toxicity of XC608 is measured using the MTT method. Specifically: (1) cell culture: (i) frozen cells are removed from liquid nitrogen, rapidly thawed in 37° C. water bath; added to 6 ml DMEM culture medium in a 10 ml centrifuge tubes under sterile conditions, centrifuged at 1000 rpm for 5 min., with the supernatant removed. To the sediment is added 5-6 ml of DMEM medium, and re-suspended and cultured overnight at 37° C. (ii) The cells are centrifuged, washed twice with PBS, and treated with 3-4 drops of trypsin solution for about 3 minute at 37° C., and monitored under microscope to ensure that all cells are separated from the culture tube walls, and re-suspended in additional DMEM medium. […] (2) Test compound preparation: XC608 and XC302 are dissolved in PBS and serial diluted to 1000, 100, 10, 1, 0.1 and 0.01 μg/ml. (3) The prepared test compound solution is added to the holes of a 96-hole culture plate, 10 μl/hole, with two holes per concentration point, and 10 μl PBS as control. (4) Prepare a suspension of log phase cell in a DMEM medium containing 10% new born bovine serum with a cell concentration of 2×10^5/ml.
(§6) (5) add 90 μl cell suspension to each of the holes containing the test compound or control. […]

Data set [2] has as its system human low differentiation stomach cancer BGC-823. The data set can be described thus: MTT cytotoxicity, BGC-823. The data set is classed as cell-based. The protocol:
as §4, §5, §6

The subject of data set [3] is human liver cancer QGY-7701. The data set can be described thus: MTT cytotoxicity, QGY-7701. The format is cell-based. The protocol:
as §4, §5, §6

Data set [4] concerns human colon cancer SW-620. The experiment in a line: Nude mice transplanted with human colon cancer SW-620, XC608 with ADR and 5-fu. The data set is classed as in vivo. The conditions noted are these: SW-620 in nude mice. The protocol:
(§7) Nude mice transplanted with human colon cancer HT-29 and SW-620 and breast cancer MDA-MB-231 are tested using XC608 alone and in combination with ADR and 5-fu.

The target in another data set is T2, EGFR (Homo sapiens, UniProt P00533).
T2 construct: purchased Sigma
The experiment in a line: Kinase activity measurement, EGFR. The format is biochemical. The procedure: as §1, §2

The test system of the next data set is cdc2 phosphorylation. The data set can be described thus: cdc2 phosphorylation induced by topoisomerase I. The format is cell-based. From the text:
The effects of XC608 on the activity of protein kinases Chk1, Chk2 and c-met, and on cells entering cell cycle after drug-induced DNA damages and cellular reactions to DNA damages are studied.

A further data set has as its target T3, c-Met (Homo sapiens, UniProt P08581).
T3 construct: purchased Sigma
The experiment in a line: Kinase activity measurement, c-Met. The data set is classed as biochemical. The protocol:
as §1, §2

For data set [5], the system named is human colon cancer HT-29. The data set can be described thus: Nude mice transplanted with human colon cancer HT-29, XC608 with ADR and 5-fu. The format is in vivo. The conditions noted are these: HT-29 in nude mice. The protocol:
as §7

For the next data set, the target named is T4, HER2 (Homo sapiens, UniProt P04626).
T4 construct: purchased Sigma
The data set can be described thus: Kinase activity measurement, HER2. The data set is classed as biochemical. The procedure:
as §1, §2

For another data set, the target named is T5, Chk1 (Homo sapiens, UniProt O14757).
T5 construct: purchased Upstate Biotechnology, Inc
T5 sequence (O14757 1-476): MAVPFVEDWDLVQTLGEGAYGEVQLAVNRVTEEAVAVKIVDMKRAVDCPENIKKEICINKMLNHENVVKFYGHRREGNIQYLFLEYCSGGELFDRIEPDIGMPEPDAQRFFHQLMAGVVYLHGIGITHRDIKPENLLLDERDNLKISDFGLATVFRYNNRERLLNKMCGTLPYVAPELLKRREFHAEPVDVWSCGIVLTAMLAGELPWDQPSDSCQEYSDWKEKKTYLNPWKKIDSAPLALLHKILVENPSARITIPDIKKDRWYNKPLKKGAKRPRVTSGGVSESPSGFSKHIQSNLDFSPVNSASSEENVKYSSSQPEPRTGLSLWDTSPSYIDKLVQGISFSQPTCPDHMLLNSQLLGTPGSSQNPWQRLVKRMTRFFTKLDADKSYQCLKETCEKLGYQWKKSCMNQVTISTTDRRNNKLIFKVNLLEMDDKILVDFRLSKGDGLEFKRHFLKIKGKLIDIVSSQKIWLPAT
The data set can be described thus: Kinase activity measurement (K-LISA), Chk1. The format is biochemical. The protocol:
The K-LISA™ Chk-1/Chk2 Activity Kit was supplied by Calibiochem (Cat. No. CBA020). Chk1 and Chk2 are from Upstate Biotechnology, Inc., and C-Met, HER2, EGFR are from Sigma.
as §2, with “After” for “Kinase activity measurements: Enzyme, sample, Chk peptide, 5 μm ATP, and reaction buffer are added to the holes of biotinylated reaction plates. After”

Where [6] appears, read: Homo sapiens, HT-29, 72 h, read-out: IC50 Drug alone.
Where [7] appears, read: read-out: IC50 +10 nM AZD7762, HT-29, SRB, 72 hours, drug +10 nM AZD7762.
The mark [8] stands for this setting: read-out: IC50 +100 nM AZD7762, HT-29, SRB, 72 hours, drug +100 nM AZD7762.
The mark [9] stands for this setting: read-out: IC50 +1 μM XC608, HT-29, SRB, 72 hours, drug +1 μM XC608.
[10] abbreviates: read-out: IC50 Drug alone, HT-29, SRB, 72 hours, drug alone.

A word on the inhibition: it is the change of the read-out against control, counted positive when it falls. A word on the IC50: it is the concentration at which inhibition is half-maximal.

In brackets after ≈: the same amount, converted by molar mass. Entries after “also recorded” stand apart in the source; their conditions may differ. Read-outs that look alike come from different tables or passages of the source.

T1 sequence (O96017 whole entry): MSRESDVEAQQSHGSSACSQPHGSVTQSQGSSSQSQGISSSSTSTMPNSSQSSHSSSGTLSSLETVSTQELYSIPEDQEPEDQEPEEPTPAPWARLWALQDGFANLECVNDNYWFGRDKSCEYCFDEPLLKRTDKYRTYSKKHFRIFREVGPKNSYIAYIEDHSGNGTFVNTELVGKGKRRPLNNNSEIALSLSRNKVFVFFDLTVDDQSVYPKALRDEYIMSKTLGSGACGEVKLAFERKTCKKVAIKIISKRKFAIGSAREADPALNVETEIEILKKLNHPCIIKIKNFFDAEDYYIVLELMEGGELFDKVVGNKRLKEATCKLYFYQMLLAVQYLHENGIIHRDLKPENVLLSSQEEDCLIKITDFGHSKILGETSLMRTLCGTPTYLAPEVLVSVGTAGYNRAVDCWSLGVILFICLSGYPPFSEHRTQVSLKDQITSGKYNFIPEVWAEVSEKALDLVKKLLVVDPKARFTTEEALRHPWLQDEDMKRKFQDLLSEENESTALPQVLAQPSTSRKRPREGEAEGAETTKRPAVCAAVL
T4 sequence (P04626 23-1255): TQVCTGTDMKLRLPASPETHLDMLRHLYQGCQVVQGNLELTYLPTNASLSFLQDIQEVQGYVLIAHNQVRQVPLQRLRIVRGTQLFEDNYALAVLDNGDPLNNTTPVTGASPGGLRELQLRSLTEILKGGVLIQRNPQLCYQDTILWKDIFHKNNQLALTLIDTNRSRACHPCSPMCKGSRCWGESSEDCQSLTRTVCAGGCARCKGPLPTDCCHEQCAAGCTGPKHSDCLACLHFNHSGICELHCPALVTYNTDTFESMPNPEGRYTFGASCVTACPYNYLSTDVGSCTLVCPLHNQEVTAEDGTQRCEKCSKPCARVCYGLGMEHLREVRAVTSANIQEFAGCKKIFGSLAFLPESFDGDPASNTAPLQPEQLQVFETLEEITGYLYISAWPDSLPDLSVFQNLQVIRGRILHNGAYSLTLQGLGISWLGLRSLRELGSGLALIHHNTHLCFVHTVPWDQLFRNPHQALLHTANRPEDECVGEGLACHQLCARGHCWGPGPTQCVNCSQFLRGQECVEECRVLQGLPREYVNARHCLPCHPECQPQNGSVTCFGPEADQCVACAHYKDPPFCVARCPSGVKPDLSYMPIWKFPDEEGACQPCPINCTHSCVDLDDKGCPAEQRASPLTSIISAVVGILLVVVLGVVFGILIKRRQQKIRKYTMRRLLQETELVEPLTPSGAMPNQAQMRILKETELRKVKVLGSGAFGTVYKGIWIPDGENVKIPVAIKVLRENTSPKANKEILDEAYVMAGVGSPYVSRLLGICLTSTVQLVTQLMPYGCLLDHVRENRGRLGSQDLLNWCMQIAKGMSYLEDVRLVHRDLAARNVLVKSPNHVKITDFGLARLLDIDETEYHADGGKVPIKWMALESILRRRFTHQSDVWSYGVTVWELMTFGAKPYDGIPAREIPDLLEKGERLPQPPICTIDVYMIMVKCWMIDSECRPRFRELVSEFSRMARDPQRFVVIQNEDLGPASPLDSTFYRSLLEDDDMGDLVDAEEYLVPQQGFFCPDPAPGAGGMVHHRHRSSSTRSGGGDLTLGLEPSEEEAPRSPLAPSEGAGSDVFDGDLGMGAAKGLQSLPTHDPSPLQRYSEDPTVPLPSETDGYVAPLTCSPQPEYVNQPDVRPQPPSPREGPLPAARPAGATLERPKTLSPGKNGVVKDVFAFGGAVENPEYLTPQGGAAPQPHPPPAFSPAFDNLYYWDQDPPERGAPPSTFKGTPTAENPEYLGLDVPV
T2 sequence (P00533 25-1210): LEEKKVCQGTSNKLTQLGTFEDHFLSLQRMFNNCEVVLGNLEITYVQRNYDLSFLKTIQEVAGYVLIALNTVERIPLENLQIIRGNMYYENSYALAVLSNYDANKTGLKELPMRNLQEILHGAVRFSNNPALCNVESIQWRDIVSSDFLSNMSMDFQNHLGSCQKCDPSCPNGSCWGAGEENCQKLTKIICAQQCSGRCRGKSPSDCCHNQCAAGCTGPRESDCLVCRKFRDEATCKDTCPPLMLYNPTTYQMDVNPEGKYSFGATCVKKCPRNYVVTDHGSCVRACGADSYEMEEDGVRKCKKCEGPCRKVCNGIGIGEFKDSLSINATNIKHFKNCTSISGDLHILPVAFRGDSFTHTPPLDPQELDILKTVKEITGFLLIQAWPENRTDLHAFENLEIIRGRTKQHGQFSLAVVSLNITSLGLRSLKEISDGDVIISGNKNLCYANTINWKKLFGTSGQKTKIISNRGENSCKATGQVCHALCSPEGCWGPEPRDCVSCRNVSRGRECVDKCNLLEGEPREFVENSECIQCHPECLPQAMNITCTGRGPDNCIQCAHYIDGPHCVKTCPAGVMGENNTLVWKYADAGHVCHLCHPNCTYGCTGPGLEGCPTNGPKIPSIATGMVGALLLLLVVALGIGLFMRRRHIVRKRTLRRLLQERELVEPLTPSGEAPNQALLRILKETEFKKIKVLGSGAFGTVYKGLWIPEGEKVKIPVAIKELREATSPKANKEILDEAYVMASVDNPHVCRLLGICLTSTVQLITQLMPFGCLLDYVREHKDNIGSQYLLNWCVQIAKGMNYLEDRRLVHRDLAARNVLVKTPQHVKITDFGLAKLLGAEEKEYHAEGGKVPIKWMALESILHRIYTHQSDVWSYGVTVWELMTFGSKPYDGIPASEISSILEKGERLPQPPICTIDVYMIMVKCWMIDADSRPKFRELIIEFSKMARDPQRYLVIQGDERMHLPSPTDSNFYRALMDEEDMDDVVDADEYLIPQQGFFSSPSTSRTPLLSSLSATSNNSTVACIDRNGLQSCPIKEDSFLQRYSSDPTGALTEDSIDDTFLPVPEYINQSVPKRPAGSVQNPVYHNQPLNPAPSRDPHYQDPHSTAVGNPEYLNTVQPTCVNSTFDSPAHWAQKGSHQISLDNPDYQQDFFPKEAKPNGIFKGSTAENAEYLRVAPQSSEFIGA
T3 sequence (P08581 25-1390): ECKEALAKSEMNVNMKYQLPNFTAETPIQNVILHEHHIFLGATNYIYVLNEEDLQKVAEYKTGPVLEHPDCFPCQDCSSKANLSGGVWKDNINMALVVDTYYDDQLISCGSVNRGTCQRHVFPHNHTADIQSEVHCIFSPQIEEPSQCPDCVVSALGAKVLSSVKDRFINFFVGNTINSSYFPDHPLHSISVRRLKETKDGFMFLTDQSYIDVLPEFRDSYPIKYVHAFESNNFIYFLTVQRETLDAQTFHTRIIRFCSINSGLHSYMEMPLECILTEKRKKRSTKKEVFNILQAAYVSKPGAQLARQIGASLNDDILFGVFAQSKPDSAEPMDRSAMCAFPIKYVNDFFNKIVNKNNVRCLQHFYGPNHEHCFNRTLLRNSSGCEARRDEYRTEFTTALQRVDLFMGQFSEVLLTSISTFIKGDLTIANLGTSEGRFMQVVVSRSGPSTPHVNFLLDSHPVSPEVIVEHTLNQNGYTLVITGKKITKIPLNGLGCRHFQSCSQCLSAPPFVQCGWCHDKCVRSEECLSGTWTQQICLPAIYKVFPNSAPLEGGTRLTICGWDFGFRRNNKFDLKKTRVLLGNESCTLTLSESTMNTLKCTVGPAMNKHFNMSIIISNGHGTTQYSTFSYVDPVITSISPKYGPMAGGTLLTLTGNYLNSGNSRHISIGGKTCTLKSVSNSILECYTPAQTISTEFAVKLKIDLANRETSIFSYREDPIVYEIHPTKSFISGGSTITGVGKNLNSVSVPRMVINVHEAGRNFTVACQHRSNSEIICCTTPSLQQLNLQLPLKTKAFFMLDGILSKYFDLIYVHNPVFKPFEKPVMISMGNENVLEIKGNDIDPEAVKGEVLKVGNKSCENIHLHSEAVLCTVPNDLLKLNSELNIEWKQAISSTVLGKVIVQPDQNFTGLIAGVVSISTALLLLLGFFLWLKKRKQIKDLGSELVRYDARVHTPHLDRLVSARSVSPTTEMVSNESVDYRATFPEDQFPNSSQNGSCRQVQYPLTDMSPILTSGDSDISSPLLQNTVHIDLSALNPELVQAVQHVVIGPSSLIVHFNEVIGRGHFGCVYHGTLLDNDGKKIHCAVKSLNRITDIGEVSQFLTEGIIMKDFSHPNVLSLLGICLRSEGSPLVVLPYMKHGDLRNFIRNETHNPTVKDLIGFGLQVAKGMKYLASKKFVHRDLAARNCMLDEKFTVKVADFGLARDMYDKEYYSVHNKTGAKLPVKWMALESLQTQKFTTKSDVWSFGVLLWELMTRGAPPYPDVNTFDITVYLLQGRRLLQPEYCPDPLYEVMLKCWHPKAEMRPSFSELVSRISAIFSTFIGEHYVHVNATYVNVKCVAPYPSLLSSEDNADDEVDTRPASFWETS
Description for HT-29 Cell line: 3.2 Cell Lines: HT-29 Cell line (from ATCC).
Test Protocol: The effects of the compounds on cancer cell multiplication was measured using Sulforhodamine B (SRB). Specifically, log phase cells are inoculated into the holes of 96-hole culture plates, allowed to grow using the wall-adhesion procedure at 37° C. under 5% CO2. The test compound at 9 different concentrations were added, each concentration in duplicate, with appropriate saline water and cell-less controls. The cells are cultured for a further 72 hours, and fixed with TCA, and SRB is added for staining, and washed, and air-dried. After adding the Tris solution, the OD value was measured at 510 nm using a Spectra Max 190. The rate of inhibition is calculated according to the formula below: Rate of Inhibition=(ODcontrol−ODdrug)/ODcontrol×100%.
The IC50 is calculated based on the above ratios.

In the case of `NC(=O)Nc1cc(-c2cccc(F)c2)sc1C(=O)N[C@H]1CCCNC1` [AZD7762], the inhibition at 0.1 µM at Chk2 (100 nM, read-out: Inhibition (%) (Mean ± SD) Chk2) is 99%.
Turning to `NC(=O)c1nnc(NC2CCCNC2)c2cc(-c3ccc(F)cc3)sc12` (centres unmarked) [Compound 1, 2-(4-fluorophenyl)-4-(3-piperidineamino)-thieno[2,3-d]pyridazine-7-carboxylic acid amide], the half-inhibitory concentration (IC50) with Mouse Lung Cancer (3LL) worked out at 1880 nM; with Human colon cancer HT-29 [1], 1580 nM.
In the case of `O=c1[nH]cc(F)c(=O)[nH]1` [Compound 5-Fu, 5-fluorouracil], the IC50 in the data set with HT-29 Cell line (setting [6]) was determined as 1100 nM; in the data set on HT-29 Cell line (setting [7]), 1000 nM; with HT-29 Cell line (setting [8]) it was 300 nM; in the data set on HT-29 Cell line (setting [9]), 200 nM.
`N.N.[Cl][Pt][Cl]` [DDP, cisplatin]: the IC50 in the data set with HT-29 Cell line (setting [7]) is 5200 nM; with HT-29 Cell line (setting [8]) it was 1300 nM; in the data set on HT-29 Cell line (setting [9]), 1300 nM; in the data set with HT-29 Cell line (setting [10]), 7700 nM.
For `CC(=O)O[C@H]1C(=O)[C@@]2(C)[C@H]([C@H](OC(=O)c3ccccc3)[C@]3(O)C[C@H](OC(=O)[C@H](O)[C@@H](NC(=O)c4ccccc4)c4ccccc4)C(C)=C1C3(C)C)[C@]1(OC(C)=O)CO[C@@H]1C[C@@H]2O` [Paclitaxel, paclitaxel], the IC50 in the data set with HT-29 Cell line (setting [6]) was 3 nM; with HT-29 Cell line (setting [8]), 5 nM; with HT-29 Cell line (setting [9]) it was 2 nM.
Consider `CS(=O)(=O)O.CS(=O)(=O)O.O.O.c1cnc2ccc(Nc3nc(NC4CC4)c4nc[nH]c4n3)cc2c1` [XC302], for which the “IC50, inhibition of cancer cell multiplication, 3LL” value in the data set with mouse lung cancer 3LL came to 2.96 µg/mL. The “IC50, inhibition of cancer cell multiplication, BGC-823” value in data set [2] (48 hours) turned out to be 4.77 µg/mL. For the same molecule, in data set [3] (48 hours), the “IC50, inhibition of cancer cell multiplication, QGY-7701” value came to 6.69 µg/mL.
As to `NC(=O)c1nnc(N[C@H]2CCCNC2)c2cc(-c3cccc(F)c3)sc12` [XC608], the “effect on activity of Chk2 (in words)” value at Chk2 was “clearly inhibits; also recorded: strongly inhibits”. Besides, the inhibition at 1 µM was 90 ± 13.2% on Chk2 (1 μM, read-out: Inhibition (%) (Mean ± SD) Chk2); 15.9 ± 5.3% on EGFR (1 μM, read-out: Inhibition (%) (Mean ± SD) EGFR); 15.9% at c-Met (1 μM, read-out: Inhibition (%) (Mean ± SD) c-Met); 10.2 ± 1.3% on HER2 (1 μM, read-out: Inhibition (%) (Mean ± SD) HER2); 85 ± 11.1% at Chk1 (1 μM, read-out: Inhibition (%) (Mean ± SD) Chk1). The “sensitizing effects on the treatment effects of ADR and 5-fu (in words)” value (in [4]; with human colon cancer HT-29 [5]) was “significant sensitizing effects” each time. For the same molecule, in the data set on HT-29 Cell line (cell cultures, gemcitabine), the “sensitizing effect on gemcitabine” value is “more than 20 times”. In addition, the “sensitizing effects on cytotoxic antitumor drugs at the cellular level (in words)” value is recorded as “strong sensitizing effects” in the data set on HT-29 Cell line (gemcitabine) and “effective in sensitizing” with HT-29 Cell line (gemcitabine, listed as XC-608). Besides, on EGFR, the “effect on EGFR (in words)” value is “not apparent effect”. The “effect on cdc2 phosphorylation induced by topoisomerase I (in words)” value in the data set with cdc2 phosphorylation is listed as “eliminates; also recorded: reduces”. The “effect on c-met (in words)” value on c-Met is on record as “not apparent effect”. The IC50 in the data set on mouse lung cancer 3LL (Mus musculus, read-out: IC50, inhibition of cancer cell multiplication, 3LL) was determined as 1.05 µg/mL (≈ 2.83 µM); in data set [2] (Homo sapiens, BGC-823, 48 hours, read-out: IC50, inhibition of cancer cell multiplication, BGC-823), 7.11 µg/mL (≈ 19.1 µM); in [3] (Homo sapiens, QGY7701, 48 hours, read-out: IC50, inhibition of cancer cell multiplication, QGY-7701) it was 5.14 µg/mL (≈ 13.8 µM). For the same molecule, the “effect on HER2 (in words)” value at HER2 is reported as “not apparent effect”. For the same molecule, on Chk1, the “effect on activity of Chk1 (in words)” value was “clearly inhibits; also recorded: strongly inhibits”. In addition, the “specificity for Chk1 (conclusion in words)” value at Chk1 was “specific Chk1 inhibitor”.
For the molecule `O=C1[O][Pt]2([NH][C@@H]3CCCC[C@H]3[NH]2)[O]C1=O` [oxaliplatin], the IC50 was 2500 nM with HT-29 Cell line (setting [7]), 1100 nM with HT-29 Cell line (setting [8]), 1300 nM in the data set on HT-29 Cell line (setting [9]) and 1600 nM with HT-29 Cell line (setting [10]).

For the origin of these results see patent US8815863B2, “Compounds and therapeutic use thereof for protein kinase inhibition” (priority 2009, dated 2014).
